{"source": "paper PMC7094298", "about": "(Febs Letters, 2009)", "origin": "cited, not measured here", "key": {"[1]": {"molecular_target": "SARS-CoV 3CLpro (Severe acute respiratory syndrome coronavirus, UniProt P0C6X7)"}, "[2]": {"test_system": "RV and other picornaviral 3Cpro"}}, "note": "“Also recorded” adds a separate entry of the source.", "data": [{"smiles": "CCOC(=O)/C=C/[C@H](C[C@@H]1CCNC1=O)NC(=O)[C@@H](CC(=O)[C@@H](NC(=O)c1cc(C)on1)C(C)C)Cc1ccc(F)cc1", "note": "[AG7088]", "values": [{"measurement": "inhibition of SARS-CoV 3CLpro", "setting": "[1]", "result": "did not inhibit; also recorded: failed to inhibit"}, {"measurement": "inhibition of RV and other picornaviral 3Cpro", "setting": "[2]", "result": "potent inhibitor"}]}]}
